Measured values published in paper PMC9127750, “Structure-based design of CDC42 effector interaction inhibitors for the treatment of cancer” (Cell reports, 2022).

System: WM3248 melanoma cells, 486 antibodies
Assay: Reverse phase protein arrays (RPPA);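 for RPPA ACC1.R.C: ratio of treated to vehicle (0 µM) normalized linear protein signal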;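 for RPPA AMPK.a2 pS345.R.V: ratio of treated to vehicle (0 µM) normalized linear protein signal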;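 for RPPA AMPKa pT172.R.C: ratio of treated to vehicle (0 µM) normalized linear protein signal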;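 for RPPA ASNS.R.V: ratio of treated to vehicle (0 µM) normalized linear protein signal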;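 for RPPA AceCS1.R.V: ratio of treated to vehicle (0 µM) normalized linear protein signal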;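 for RPPA Akt1.R.V: ratio of treated to vehicle (0 µM) normalized linear protein signal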;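 for RPPA Atg5.R.C: ratio of treated to vehicle (0 µM) normalized linear protein signal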;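 for RPPA Bim.R.V: ratio of treated to vehicle (0 µM) normalized linear protein signal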
Type: cell-based, Human
Settings: 5 uM
Description: Pellets were snap frozen in liquid nitrogen and shipped to MD Anderson Cancer Center core RPPA facility for RPPA analysis (Table S5). Three biological replicates for each sample were generated.
Nomenclatures on the RPPA heatmaps: name_of_antibody.species_of_antibody.status_of_antibody. V - antibody validated; C - validation of antibody in progress; Q - antibody nonspecific; E – under evaluation; antibodies raised in M - mouse, G - goat, R - rabbit, or T - rat.

CN(C)c1cccc(Nc2cc(-c3ccccc3)nc(C3CCNCC3)n2)c1 [ARN22089, N1,N1-dimethyl-N3-(6-phenyl-2-(piperidin-4-yl)pyrimidin-4-yl)benzene-1,3-diamine]
RPPA MYH11.R.C Average: 0.914
RPPA Myosin.IIa.R.C Average: 0.843
RPPA Myosin.IIa_pS1943.R.V Average: 0.844
RPPA Myt1.R.C Average: 1.051
RPPA N.Cadherin.R.V Average: 1.019
RPPA N.Ras.M.V Average: 1.035
RPPA NAPSIN.A.R.C Average: 1.080
RPPA NDRG1_pT346.R.V Average: 0.957
RPPA NDUFB4.R.V Average: 0.959
RPPA NRF2.R.C Average: 1.058
RPPA Notch1.R.V Average: 0.994
RPPA Notch1.cleaved.R.V Average: 0.989
RPPA P.Cadherin.R.C Average: 1.050
RPPA PAI.1.M.V Average: 0.977
RPPA PAICS.R.C Average: 0.899
RPPA PAK1.R.V Average: 1.006
RPPA PAK4.R.V Average: 0.986
RPPA PAK_pT423_T402.R.C Average: 0.921
RPPA PAR.R.C Average: 1.327
RPPA PARG.R.C Average: 1.012
RPPA PARP.R.V Average: 1.023
RPPA PAX6.R.V Average: 1.030
RPPA PAX8.R.C Average: 0.962
RPPA PCNA.M.C Average: 0.948
RPPA PD.1.R.V Average: 0.992
RPPA PD.L1.R.C Average: 1.064
RPPA PDH.M.V Average: 1.049
RPPA PDHA1.R.V Average: 1.079
RPPA PDHK1.R.C Average: 1.057
RPPA PDK1_pS241.R.V Average: 1.138
RPPA PEA.15.R.V Average: 0.904
RPPA PEA.15_pS116.R.V Average: 1.018
RPPA PERK.R.V Average: 0.925
RPPA PGM1.R.V Average: 0.979
RPPA PHGDH.R.C Average: 1.081
RPPA PHLPP.R.V Average: 0.922
RPPA PI3K.p85.R.C Average: 0.987
RPPA PI3K.p110.a.R.C Average: 1.057
RPPA PI3K.p110.b.M.C Average: 0.980
RPPA PKA.a.R.V Average: 1.013
RPPA PKC.a.b.II_pT638_T641.R.V Average: 0.925
RPPA PKC.b.II_pS660.R.V Average: 1.162
RPPA PKCa.R.V Average: 1.462
RPPA PKM2.R.C Average: 0.954
RPPA PLC.gamma1.R.V Average: 0.970
RPPA PLC.gamma1_pS1248.R.V Average: 1.060
RPPA PLC.gamma2_pY759.R.V Average: 0.976
RPPA PLK1.R.C Average: 0.920
RPPA PMS2.R.V Average: 0.940
RPPA PR.R.V Average: 1.032
RPPA PRAS40.M.C Average: 0.991
RPPA PRAS40_pT246.R.V Average: 1.028
RPPA PRC1_pT481.R.C Average: 0.944
RPPA Paxillin.R.C Average: 0.977
RPPA Pdcd4.R.C Average: 1.156
RPPA Porin.M.V Average: 0.936
RPPA p21.R.C Average: 1.048
RPPA p27.Kip1.R.C Average: 0.948
RPPA p27_pT157.R.C Average: 0.943
RPPA p27_pT198.R.V Average: 1.103
RPPA p38.MAPK.R.V Average: 1.062
RPPA p38.MAPK._pT180_Y182.R.V Average: 1.580
RPPA p38.a.M.V Average: 0.984
RPPA p44.42.MAPK.R.V Average: 0.980
RPPA p53.R.C Average: 1.052
RPPA p70.S6K1.R.V Average: 0.998
RPPA p70.S6K_pT389.R.V Average: 1.143
RPPA p90RSK_pT573.R.C Average: 0.930
RPPA A.Raf.R.V (5W1): 1.057
RPPA A.Raf_pS299.R.C (5W1): 0.952
RPPA ACC1.R.C (5W1): 1.201
RPPA ACC_pS79.R.V (5W1): 1.224
RPPA ACLY_pS455.R.V (5W1): 1.273
RPPA ACSL1.R.V (5W1): 0.847
RPPA ACVRL1.R.C (5W1): 0.930
RPPA ADAR1.M.V (5W1): 0.910
RPPA ALKBH5.R.V (5W1): 0.866
RPPA AMPK.a2_pS345.R.V (5W1): 1.146
RPPA AMPKa.R.C (5W1): 1.108
RPPA AMPKa_pT172.R.C (5W1): 2.494
RPPA AR.R.V (5W1): 1.056
RPPA ARID1A.R.C (5W1): 0.880
RPPA ASNS.R.V (5W1): 0.847
RPPA ATM.R.V (5W1): 1.285
RPPA ATM_pS1981.R.V (5W1): 0.930
RPPA ATP5A.M.C (5W1): 0.983
RPPA ATP5H.R.V (5W1): 0.890
RPPA ATR.R.V (5W1): 0.910
RPPA ATRX.R.C (5W1): 1.060
RPPA ATR_pS428.R.C (5W1): 1.111
RPPA AceCS1.R.V (5W1): 0.974
RPPA Akt1.R.V (5W1): 1.150
RPPA Akt1_pS473.R.V (5W1): 1.251
RPPA Akt2.R.V (5W1): 1.156
RPPA Akt2_pS474.R.C (5W1): 1.400
RPPA Akt.R.V (5W1): 1.121
RPPA Akt_pS473.R.V (5W1): 1.390
RPPA Akt_pT308.R.V (5W1): 1.046
RPPA Ambra1_pS52.R.C (5W1): 0.943
RPPA Annexin.VII.M.V (5W1): 0.883
RPPA Atg4B.R.C (5W1): 1.033
RPPA Atg5.R.C (5W1): 1.001
RPPA Atg7.R.V (5W1): 0.986
RPPA Aurora.A.R.C (5W1): 0.575
RPPA Aurora.ABC_pT288_pT232_pT198.R.C (5W1): 0.881
RPPA Aurora.B.R.V (5W1): 0.940
RPPA Axl.R.V (5W1): 1.329
RPPA B7.H3.R.C (5W1): 0.986
RPPA B7.H4.R.C (5W1): 1.110
RPPA B.Raf.R.C (5W1): 1.153
RPPA BAP1.M.V (5W1): 0.943
RPPA BCL2A1.R.V (5W1): 1.060
RPPA BMK1.Erk5_pT218_Y220.R.V (5W1): 0.857
RPPA BRCA1.M.C (5W1): 0.962
RPPA BRD4.R.V (5W1): 0.959
RPPA Bad_pS112.R.V (5W1): 1.171
RPPA Bak.R.C (5W1): 1.077
RPPA Bax.R.V (5W1): 0.955
RPPA Bcl2.R.C (5W1): 0.855
RPPA Beclin.R.C (5W1): 0.863
RPPA BiP.GRP78.M.C (5W1): 0.936
RPPA Bim.R.V (5W1): 1.056
RPPA X4E.BP1.R.V (5W1): 1.448
RPPA X4E.BP1_pS65.R.V (5W1): 0.917
RPPA X14.3.3.zeta.R.V (5W1): 0.934
RPPA X14.3.3βR.V (5W1): 0.934
RPPA X53BP1.R.V (5W1): 1.104
RPPA b.Actin.R.C (5W1): 0.885
RPPA b.Catenin.R.V (5W1): 0.881
RPPA b.Catenin_pT41_S45.R.V (5W1): 1.099
RPPA c.Abl.R.V (5W1): 1.227
RPPA c.Abl_pY412.R.C (5W1): 1.133
RPPA c.IAP2.R.C (5W1): 0.965
RPPA A.Raf.R.V (5W3): 1.155
RPPA A.Raf_pS299.R.C (5W3): 1.022
RPPA ACC1.R.C (5W3): 0.834
RPPA ACC_pS79.R.V (5W3): 0.685
RPPA ACLY_pS455.R.V (5W3): 0.716
RPPA ACSL1.R.V (5W3): 0.628
RPPA ACVRL1.R.C (5W3): 0.953
RPPA ADAR1.M.V (5W3): 1.141
RPPA ALKBH5.R.V (5W3): 0.830
RPPA AMPK.a2_pS345.R.V (5W3): 1.116
RPPA AMPKa.R.C (5W3): 1.027
RPPA AMPKa_pT172.R.C (5W3): 0.821
RPPA AR.R.V (5W3): 1.102
RPPA ARID1A.R.C (5W3): 1.193
RPPA ASNS.R.V (5W3): 1.291
RPPA ATM.R.V (5W3): 1.157
RPPA ATM_pS1981.R.V (5W3): 0.939
RPPA ATP5A.M.C (5W3): 0.233
RPPA ATP5H.R.V (5W3): 0.791
RPPA ATR.R.V (5W3): 0.960
RPPA ATRX.R.C (5W3): 1.213
RPPA ATR_pS428.R.C (5W3): 1.112
RPPA AceCS1.R.V (5W3): 0.718
RPPA Akt1.R.V (5W3): 0.726
RPPA Akt1_pS473.R.V (5W3): 0.998
RPPA Akt2.R.V (5W3): 0.876
RPPA Akt2_pS474.R.C (5W3): 1.140
RPPA Akt.R.V (5W3): 0.848
RPPA Akt_pS473.R.V (5W3): 1.107
